According to patent US8901072B2, “Glycopeptide and lipoglycopeptide antibiotics with improved solubility” (The Medicines Company, priority 2009, dated 2014):
In brackets after ≈: the same amount, converted by molar mass. Several values for one entry are separate records, joined by “and”; a condition that tells them apart may be missing. Identical values can stand only once. Like-named read-outs stand apart in the source and are kept apart here.

Experiments:
S. aureus ATCC 13709 = assay: In vitro antibacterial susceptibility (MIC, broth microdilution); type: cell-based; conditions: for MIC against S. aureus ATCC 13709, CAMHB: cation-adjusted Mueller-Hinton broth, 37° C., 18 h; for Antibacterial activity compared with oritavancin 5: deduced from the MIC data of Table 2; for MIC: Staphylococcus aureus
Procedure: Susceptibility of S. aureus strain ATCC13709 to oritavancin (5) and synthesized compounds was determined following the guidelines set by the Clinical and Laboratory Standards Institute (formerly the National Committee for Clinical Laboratory Standards) (M26-A). Compounds were serially diluted two-fold in either DMSO (Oritavancin 5) or in PBS and transferred to cation-adjusted Mueller Hinton broth (CAMHB; Becton Dickinson). 50 μL of compounds diluted in CAMHB was mixed with 100 μL of bacteria diluted in CAMHB in 96-well microtiter plates. The final number of micro-organisms in the assay was 5×10^5 c.f.u. per mL and the final concentration of DMSO in the assay, if present, was 1.25%. All solutions may contain 0.002% Tween as indicated. Assays were set up in duplicate and incubated at 37° C. for 18 h. The concentration of compound that inhibited visible growth was reported as the minimum inhibitory concentration (MIC).

[1] = Solubility in phosphate buffered saline; type: physicochemical; conditions: 10 mM phosphate buffered saline (0.138 M NaCl, 2.7 mM KCl), pH 7.4
Procedure: To a sample of the material of known mass were added known volumes of phosphate buffered saline until complete dissolution is observed. Suspensions were centrifuged for 5 min at 10000 rpm. […] Upon complete dissolution, the solution is diluted until the final concentration is 0.5 mg/mL to ensure that the material remains soluble over the entire range of concentrations.

[2] = system: S. aureus strain ATCC13709; assay: Neutropenic mouse thigh infection model; type: in vivo, mice; conditions: for Recovered bacterial titers per thigh, 1 mg/kg / Recovered bacterial titers per thigh, 10 mg/kg / Recovered bacterial titers per thigh, 40 mg/kg: neutropenic mice, 24 h postinfection; for Recovered bacterial titers per thigh, 1 mg/kg: 1 mg/kg one hour after inoculation; for Recovered bacterial titers per thigh, 10 mg/kg: 10 mg/kg one hour after inoculation; for Recovered bacterial titers per thigh, 40 mg/kg: 40 mg/kg one hour after inoculation; for In vivo antibacterial efficacy compared with oritavancin: deduced from the data of Table 3
Procedure: The susceptibility of S. aureus strain ATCC13709 to oritavancin (5) and selected synthesized compounds in vivo was evaluated with the well accepted neutropenic mouse thigh infection model (Craig, W. A. et al. Journal of Antimicrobial Chemotherapy (1991), 27 (Suppl. C):29-40). Mice were made neutropenic by treatment with cyclophosphamide (150 and 100 mg/kg of body weight administered intraperitoneally 4 days and 1 day prior to infection). Mice were anesthetized briefly with approximately 4% isoflurane just prior to inoculation. The bacterial suspension (0.1 mL) was injected intramuscularly into each thigh (approximately 10^5 colony forming units (CFU)/thigh). The selected agents were administered in 10% (w/w) β-hydroxypropylcyclodextrin in water at a concentration of 10 mg/mL one hour following bacterial inoculation. The animals were humanely sacrificed by CO2 asphyxiation 24 h postinfection. The entire thigh muscle mass including the bone was homogenized and diluted in 0.9% saline and aliquots were plated on Brain-Heart Infusion agar. Following overnight incubation at 37° C., bacteria were enumerated for each thigh and expressed as log10 CFU per thigh. This was performed over three independent experiments and oritavancin (5) was used as a comparator in each.

Row | Compound | MIC against S. aureus ATCC 13709, CAMHB + 0.002% tween (S. aureus ATCC 13709) | MIC against S. aureus ATCC 13709, CAMHB + 50% human serum (S. aureus ATCC 13709) | MIC against S. aureus ATCC 13709, CAMHB + 50% mouse serum (S. aureus ATCC 13709) | MIC against S. aureus ATCC 13709, CAMHB (S. aureus ATCC 13709) | Antibacterial activity compared with oritavancin 5 (S. aureus ATCC 13709) | Solubility (mg/mL) PBS [1] | Recovered bacterial titers per thigh, 1 mg/kg [2] | Recovered bacterial titers per thigh, 10 mg/kg [2] | Recovered bacterial titers per thigh, 40 mg/kg [2] | In vivo antibacterial efficacy compared with oritavancin [2] | MIC against S. aureus ATCC 13709, CAMHB + 50% rat serum (S. aureus ATCC 13709; CAMHB + 50% rat serum) | MIC (S. aureus ATCC 13709; ATCC13709, 18 h, read-out: MIC against S. aureus ATCC 13709, CAMHB) | MIC (S. aureus ATCC 13709; ATCC13709, read-out: MIC against S. aureus ATCC 13709, CAMHB + 0.002% tween) | MIC (S. aureus ATCC 13709; ATCC13709, read-out: MIC against S. aureus ATCC 13709, CAMHB + 50% human serum) | MIC (S. aureus ATCC 13709; ATCC13709, read-out: MIC against S. aureus ATCC 13709, CAMHB + 50% mouse serum) | MIC (S. aureus ATCC 13709; ATCC13709, read-out: MIC against S. aureus ATCC 13709, CAMHB + 50% rat serum) | solubility ([1]; aqueous buffer, thermodynamic from solid, read-out: Solubility (mg/mL) PBS) | Recovered bacterial titers per thigh, 1 mg/kg ([2]; 1 mg/kg) | Recovered bacterial titers per thigh, 10 mg/kg ([2]; 10 mg/kg) | Recovered bacterial titers per thigh, 40 mg/kg ([2]; 40 mg/kg)
1 | CNC(CC(C)C)C(=O)NC1C(=O)NC(CC(N)=O)C(=O)NC2C(=O)NC3C(=O)NC(C(=O)NC(C(=O)OCC(=O)NCCCN)c4cc(O)cc(O)c4-c4cc3ccc4O)C(OC3CC(C)(N)C(O)C(C)O3)c3ccc(c(Cl)c3)Oc3cc2cc(c3OC2OC(CO)C(O)C(O)C2OC2CC(C)(NCc3ccc(-c4ccc(Cl)cc4)cc3)C(O)C(C)O2)Oc2ccc(cc2Cl)C1O (stereo not shown) [Compound 90b] | 0.5 µg/mL | 0.25 µg/mL | 0.5 µg/mL | 1 µg/mL (≈ 0.524 µM) | within an order of magnitude of that of oritavancin 5 | ≧100 mg/mL | 8.61 ± 0.16 Log10 CFU/thigh | 6.44 ± 1.82 Log10 CFU/thigh | 2.97 ± 2.35 Log10 CFU/thigh |  |  |  |  |  |  |  |  |  |  | 
2 | CNC(CC(C)C)C(=O)NC1C(=O)NC(CC(N)=O)C(=O)NC2C(=O)NC3C(=O)NC(C(=O)NC(C(=O)SCC(=O)NCCCN)c4cc(O)cc(O)c4-c4cc3ccc4O)C(OC3CC(C)(N)C(O)C(C)O3)c3ccc(c(Cl)c3)Oc3cc2cc(c3OC2OC(CO)C(O)C(O)C2OC2CC(C)(NCc3ccc(-c4ccc(Cl)cc4)cc3)C(O)C(C)O2)Oc2ccc(cc2Cl)C1O (stereo not shown) [Compound 93] | 0.125 µg/mL | 0.25 µg/mL | 1 µg/mL | 0.5 µg/mL (≈ 0.26 µM) | within an order of magnitude of that of oritavancin 5 | ≧100 mg/mL | 8.53 ± 0.49 Log10 CFU/thigh | 4.45 ± 1.68 Log10 CFU/thigh | 4.18 ± 1.70 Log10 CFU/thigh | within the same order of magnitude than oritavancin itself |  |  |  |  |  |  |  |  |  | 
3 | CNC(CC(C)C)C(=O)NC1C(=O)NC(CC(N)=O)C(=O)NC2C(=O)NC3C(=O)NC(C(=O)NC(C(=O)OCC[N+](C)(C)C)c4cc(O)cc(O)c4-c4cc3ccc4O)C(OC3CC(C)(N)C(O)C(C)O3)c3ccc(c(Cl)c3)Oc3cc2cc(c3OC2OC(CO)C(O)C(O)C2OC2CC(C)(NCc3ccc(-c4ccc(Cl)cc4)cc3)C(O)C(C)O2)Oc2ccc(cc2Cl)C1O (stereo not shown) [Compound 95] | 0.25 µg/mL | 0.5 µg/mL | 2 µg/mL | 1 µg/mL | within an order of magnitude of that of oritavancin 5 | ≧100 mg/mL | 8.32 ± 0.17 Log10 CFU/thigh | 3.95 ± 1.57 Log10 CFU/thigh | 2.96 ± 0.96 Log10 CFU/thigh | within the same order of magnitude than oritavancin itself | 0.125 µg/mL |  |  |  |  |  |  |  |  | 
4 | CN[C@H](CC(C)C)C(=O)N[C@H]1C(=O)N[C@@H](CC(N)=O)C(=O)N[C@H]2C(=O)N[C@H]3C(=O)N[C@H](C(=O)N[C@H](C(=O)O)c4cc(O)cc(O)c4-c4cc3ccc4O)[C@H](O[C@H]3C[C@](C)(N)[C@@H](O)[C@H](C)O3)c3ccc(c(Cl)c3)Oc3cc2cc(c3O[C@@H]2O[C@H](CO)[C@@H](O)[C@H](O)[C@H]2O[C@H]2C[C@](C)(NCc3ccc(-c4ccc(Cl)cc4)cc3)[C@@H](O)[C@H](C)O2)Oc2ccc(cc2Cl)[C@H]1O [Oritavancin (5), oritavancin, reference compound] |  |  |  |  |  | <0.1 mg/mL |  |  |  |  |  | 1 µg/mL (≈ 0.558 µM) | 0.125 µg/mL | 0.125 µg/mL | 0.25 µg/mL | 0.25 µg/mL | < 0.1 mg/mL | 8.16 ± 0.38 Log10 CFU/thigh and 7.96 ± 0.93 Log10 CFU/thigh and 7.98 ± 0.11 Log10 CFU/thigh | 5.19 ± 1.86 Log10 CFU/thigh and 3.81 ± 1.16 Log10 CFU/thigh and 3.03 ± 0.53 Log10 CFU/thigh | 2.62 ± 0.18 Log10 CFU/thigh and 2.62 ± 0.51 Log10 CFU/thigh and 2.29 ± 0.70 Log10 CFU/thigh
